From article PMC6773865, “Functional recruitment of dynamin requires multimeric interactions for efficient endocytosis” (Nature Communications, 2019)
pKd: −log10 of the molar value.

How the values were obtained:
[1] = system: membrane capacitance of NIH 3T3 cells (balance between exocytosis and endocytosis); assay: Cell capacitance in whole cell patch-clamp; assay type: cell-based; settings: 10th minute over 1st minute of whole cell recording; peptides 1 mM; paired t-test
Protocol: Cells were patched with pipettes made of borosilicate glass (GC150F, Harvard Apparatus) and pulled with a vertical Narishige puller (World Precision Instruments). The solution contained (in mM): 130–140 KCH3SO3, 1 EGTA, 0.1 CaCl2, 10–20 HEPES, 4 ATP (sodium or magnesium salt), 0.4 Na-GTP (or GTPγS when indicated), 5 phosphocreatine and 3 sodium ascorbate. pH was adjusted to 7.2 using KOH and osmolarity to ~300 mOsm L^−1. Sodium ascorbate was omitted in earlier recordings but was added for better stability. Chloride ions either came from 2 mM KCl, 10 mM NaCl or 4 mM MgCl2 (when Na-ATP was used) in various trials. All salts were purchased from Sigma-Aldrich. Cells were voltage-clamped at −60 mV with an EPC10 amplifier (HEKA) with series resistance and cell capacitance estimation every 4 s in the whole cell mode. The digital triggers of the amplifier were used to drive the electrovalves for pH changes. Cell viability and dialysis efficiency were made sure of by monitoring […] throughout the recording using the Patchmaster software (HEKA): series resistance should remain below 10 MΩ and holding current should remain above −100 pA. If either of these criteria was not respected (except holding current for recordings in GTPγS, see Supplementary Fig. 3D), the recording was not considered for analysis. On a given experimental day at least one control recording (i.e. without any peptide) was performed to ensure recording quality. All these recordings were pooled in the ‘control’ condition (n = 63 on 42 experimental days). […]
Supplementary Figure 5: Characteristics of the whole cell recordings in the different conditions of this study. A, Scheme of the equivalent electrical circuit of a cell recorded in the whole cell configuration. […]
This is likely due to the activation of GTP dependent trimeric G proteins which activate various channels in the presence of GTPγS, thereby increasing the holding current. […] F, Ratios of Cm recorded during the 10 th minute of recording over Cm recorded during the 1st minute. […]

[2] = target: SH3 domain of amphiphysin (amphSH3); settings: read-out: affinity for amphSH3; cited from earlier work
Description: The large GTPase dynamin is essential for vesicle scission[6] and is primarily recruited at the last steps of vesicle formation[4],[7],[8]. Many aspects of the function of this indispensable protein have been deciphered[9] but how its recruitment is regulated in cells is still a matter of debate. In this regard, the C-terminal proline/arginine rich domain of dynamin (dynPRD) is critical. It is a major interaction hub for Src-homology domain 3 (SH3) domain-containing endocytic accessory proteins[10] that bears several class I (RxxPxxP) and class II (PxxPxR) SH3-binding motifs (where P is prolin ...

GST-amphSH3 (dimeric) = target: T1, GST-amphSH3 (dimeric) (Mus musculus, UniProt Q7TQF7); assay: SPR, dimeric GST-amphSH3 on immobilized peptides; assay type: binding, murine; settings: below 1 µM
T1 construct: murine Ampiphysin1 SH3 domain residues 607–686); made in house; host or cells: E. coli BL21-CodonPlus (DE3)-RIPL
T1 sequence (Q7TQF7 607-686): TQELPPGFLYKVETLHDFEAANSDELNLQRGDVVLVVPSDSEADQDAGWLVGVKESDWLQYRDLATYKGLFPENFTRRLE

Compound	change of Cm, Cm(10')/Cm(1') [1]	pKd [2]	binding of GST-amphSH3 (GST-amphSH3 (dimeric))
CC(=O)N[C@@H](Cc1ccc(O)cc1)C(=O)N[C@@H](CCCCn1cc(CCC(=O)NCCCOCCOCCOCCCNC(=O)CCC(=O)NCCCOCCOCCOCCCNC(=O)CCC(=O)NCCCOCCOCCOCCCNC(=O)CCC(=O)N2CCC[C@H]2C(=O)N2CCC[C@H]2C(=O)N2CCC[C@H]2C(=O)N[C@@H](CCC(N)=O)C(=O)N[C@H](C(=O)N2CCC[C@H]2C(=O)N[C@@H](CO)C(=O)N[C@@H](CCCNC(=N)N)C(=O)N2CCC[C@H]2C(=O)N[C@@H](CC(N)=O)C(=O)N[C@@H](CCCNC(=N)N)C(=O)N[C@@H](C)C(=O)N2CCC[C@H]2C(=O)N2CCC[C@H]2C(=O)NCC(N)=O)C(C)C)nn1)C(=O)NCCCOCCOCCOCCCNC(=O)CCC(=O)NCCCOCCOCCOCCCNC(=O)CCC(=O)NCCCOCCOCCOCCCNC(=O)CCC(=O)N1CCC[C@H]1C(=O)N1CCC[C@H]1C(=O)N1CCC[C@H]1C(=O)N[C@@H](CCC(N)=O)C(=O)N[C@H](C(=O)N1CCC[C@H]1C(=O)N[C@@H](CO)C(=O)N[C@@H](CCCNC(=N)N)C(=O)N1CCC[C@H]1C(=O)N[C@@H](CC(N)=O)C(=O)N[C@@H](CCCNC(=N)N)C(=O)N[C@@H](C)C(=O)N1CCC[C@H]1C(=O)N1CCC[C@H]1C(=O)NCC(N)=O)C(C)C [dD15-N]	no significant decrease in Cm	–	–
Ac-YPPPQVPSRPNRAPPG-NH2 [D15, reference compound]	–	4.05	no measureable binding
